# Experimental data as given in patent US8304447B2, “2-acylaminopropoanol-type glucosylceramide synthase inhibitors” (Genzyme Corporation, priority 2007, dated 2012).
# Test system: GM3
# Assay: GM3 Elisa assay
# Assay type: cell-based
# Settings: 48 h, Table 1; B16-FO cells, 2 days incubation; read-out: IC50_uM_Mean
# Summary of the method: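 Murine B16-FO melanoma cells attached 6 h on collagen, then exposed to compounds for 2 days at 37 °C. After formaldehyde fixation, cell-surface GM3 (NeuAc) was detected by anti-GM3 IgM and peroxidase anti-mouse IgM with Quantablu fluorescence (Ex 325/Em 420).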
row,SMILES,IC50 [nM]
1,"CCCCCCCCCCCCNC(=O)N[C@H](CN1CCCC1)[C@H](O)c1ccc2c(c1)OCCO2 [Compound 7, 1-((1R,2R)-1-(2,3-dihydrobenzo[β][1,4]dioxin-6-yl)-1-hydroxy-3-(pyrrolidin-1-yl)propan-2-yl)-3-dodecylurea]",≤ 100
2,"Cc1cccc(CC(=O)N[C@H](CN2CCCC2)[C@H](O)c2ccc3c(c2)OCCO3)c1 [Compound 36, N-((1R,2R)-1-(2,3-dihydrobenzo[b][1,4]dioxin-6-yl)-1-hydroxy-3-(pyrrolidin-1-yl)propan-2-yl)-2-m-tolylacetamide]",100 to 1000
3,"CC(C)(C)c1ccc(C(=O)CCCCC(=O)N[C@H](CN2CCCC2)[C@H](O)c2ccc3c(c2)OCCO3)cc1 [Compound 155, 6-(4-tert-butylphenyl)-N-((1R,2R)-1-(2,3-dihydrobenzo[β][1,4]dioxin-6-yl)-1-hydroxy-3-(pyrrolidin-1-yl)propan-2-yl)-6-oxohexanamide]",100 to 1000
4,"COc1ccc(CNC(=O)N[C@H](CN2CCCC2)[C@H](O)c2ccc3c(c2)OCCO3)cc1 [Compound 41, 1-((1R,2R)-1-(2,3-dihydrobenzo[β][1,4]dioxin-6-yl)-1-hydroxy-3-(pyrrolidin-1-yl)propan-2-yl)-3-(4-methoxybenzyl)urea]",≤ 100
5,"COc1cccc(CNC(=O)N[C@H](CN2CCCC2)[C@H](O)c2ccc3c(c2)OCCO3)c1 [Compound 80, 1-((1R,2R)-1-(2,3-dihydrobenzo[β][1,4]dioxin-6-yl)-1-hydroxy-3-(pyrrolidin-1-yl)propan-2-yl)-3-(3-methoxybenzyl)urea]",100 to 1000

# Now from value to compound:
row,IC50 [nM],SMILES
1,1000 to 3000,"O=C(Cc1cccc(F)c1)N[C@H](CN1CCCC1)[C@H](O)c1ccc2c(c1)OCCO2 [Compound 53, N-((1R,2R)-1-(2,3-dihydrobenzo[β][1,4]dioxin-6-yl)-1-hydroxy-3-(pyrrolidin-1-yl)propan-2-yl)-2-(3-fluorophenyl)acetamide]"
2,100 to 1000,"CCOc1ccc(C(=O)CCC(=O)N[C@H](CN2CCCC2)[C@H](O)c2ccc3c(c2)OCCO3)cc1 [Compound 127, N-((1R,2R)-1-(2,3-dihydrobenzo[b][1,4]dioxin-6-yl)-1-hydroxy-3-(pyrrolidin-1-yl)propan-2-yl)-4-(4-ethoxyphenyl)-4-oxobutanamide]"
3,≤ 100,"O=C(NCc1ccc(Cl)cc1)N[C@H](CN1CCCC1)[C@H](O)c1ccc2c(c1)OCCO2 [Compound 43, 1-(4-chlorobenzyl)-3-((1R,2R)-1-(2,3-dihydrobenzo[β][1,4]dioxin-6-yl)-1-hydroxy-3-(pyrrolidin-1-yl)propan-2-yl)urea]"

# Same assay, conditions: 48 h, Table 2; B16-FO cells, 2 days incubation; read-out: IC50_uM_Mean
row,SMILES,IC50 [nM]
1,CCCCCCCC(=O)N[C@H](CN1CCCC1)[C@H](O)c1cc(O)c2c(c1)OCCO2 [Compound 318],100 to 1000
2,COc1ccc([C@@H](O)[C@@H](CN2CCCC2)NC(=O)Nc2ccc(OC(F)(F)F)cc2)cc1 [Compound 249],1000 to 3000
3,O=C(Cc1ccc(OC(F)(F)F)cc1)N[C@H](CN1CCOCC1)[C@H](O)c1ccc2c(c1)OCCO2 [Compound 258],3000 to 10000
4,CCCCCCCC(=O)N[C@H](CN1CCCC1)[C@H](O)CCCCCCC [Compound 311],1000 to 3000
5,"COc1ccc(C(=O)CCCC(=O)N[C@H](CN2CCCC2)[C@H](O)c2ccc3c(c2)OCCO3)cc1OC [Compound 282, N-((1R,2R)-1-(2,3-dihydrobenzo[β][1,4]dioxin-6-yl)-1-hydroxy-3-(pyrrolidin-1-yl)propan-2-yl)-5-(3,4-dimethoxyphenyl)-5-oxopentanamide]",1000 to 3000

# Now from value to compound:
row,IC50 [nM],SMILES
1,3000 to 10000,COc1ccc(CCC(=O)N[C@H](CN2CCCC2CN2CCCC2)[C@H](O)c2ccc3c(c2)OCCO3)cc1Cl (stereo partly drawn) [Compound 245]
2,≤ 100,CC(C)Oc1ccc(C(=O)CCCCC(=O)N[C@H](CN2CCCC2)[C@H](O)c2ccc3c(c2)OCO3)cc1 [Compound 266]

# Same assay, conditions: Table 3 (IC 50 Values); B16-FO cells; read-out: IC50_uM_Mean
row,SMILES,IC50 [nM]
1,COc1ccc(OCCC(=O)N[C@H](CN2CCCC2)[C@H](O)c2ccc(-c3ccccc3)cc2)cc1 [Compound 695],100 to 1000
2,CCCCCCOc1ccc([C@@H](O)[C@@H](CN2CC[C@H](O)C2)NC(=O)CCCCC(=O)c2ccc(OC)cc2)cc1 [Compound 368],≤ 100
3,CCCCCCOc1ccc([C@@H](O)[C@@H](CN2C3CCC2CC3)NC(=O)CCCCCC(=O)c2ccc(OC)cc2)cc1 [Compound 374],≤ 100
4,CCCCCCCCC(=O)N[C@H](CN1CCCC1)[C@H](O)c1ccc(OC)c(Cl)c1 [Compound 708],≤ 100
5,O=C(CCCCCC1CCOCC1)N[C@H](CN1CC[C@@H](F)C1)C(O)c1cccc(OCc2ccccc2)c1 (stereo partly drawn) [Compound 574],100 to 1000
6,COc1ccc(OCCC(=O)N[C@@H](CN2CCCC2)[C@@H](O)c2ccc3c(c2)OCCO3)cc1 [Compound 674],3000 to 10000
7,O=C(N[C@H](CO)[C@H](O)c1ccc2c(c1)OC(F)(F)O2)OCc1ccccc1 [Compound 406],3000 to 10000
8,O=C(CCCCCC(=O)c1ccc(F)cc1)N[C@H](CN1CC[C@H](O)C1)[C@H](O)c1ccc2c(c1)OCCO2 [Compound 653],≤ 100
9,O=C(CCCC(=O)c1ccc(F)cc1)N[C@H](CN1CCCC1)[C@H](O)c1ccc2c(c1)OCCO2 [Compound 639],100 to 1000
10,CCCCOc1ccc([C@@H](O)[C@@H](CN2CCCC2)NC(=O)CCOc2ccc(OC)cc2)cc1 [Compound 412],≤ 100
11,COc1ccc([C@@H](O)[C@@H](CN2CCCC2)NC(=O)CCCCCC(C)=O)cc1 [Compound 664],1000 to 3000
12,CCCCCCCC(=O)N[C@H](CN1CCC(C)(C)C1)[C@H](O)c1ccc2c(c1)OCCO2 [Compound 521],3000 to 10000
13,O=C(CCCCCNC(=O)C(F)(F)F)N[C@H](CN1CCCC1)[C@H](O)c1ccc2c(c1)OCCO2 [Compound 481],3000 to 10000
14,O=C(CCCOc1ccc(F)cc1)N[C@H](CN1CC[C@H](O)C1)[C@H](O)c1ccc2c(c1)OCCO2 [Compound 656],≤ 100
15,COc1ccc(OCCC(=O)N[C@H](CN2CCCC2)[C@H](O)/C=C/c2ccccc2)cc1 [Compound 396],3000 to 10000
16,COc1ccc(OCCCN(C(=O)CCCCC(=O)c2ccc(OC)cc2)[C@H](CN2CCCC2)[C@H](O)c2ccc(O)cc2)cc1 [Compound 429],3000 to 10000
17,CCCCOc1ccc(C(CN2CCCC2)NC(=O)CCCCC(=O)c2ccc(OC)cc2)cc1 (stereo not drawn) [Compound 588],3000 to 10000
18,COCCOc1ccc([C@@H](O)[C@@H](CN2CCCC2)NC(=O)CCOc2ccc(OC)cc2)cc1 [Compound 714],3000 to 10000
19,COCCOc1ccc([C@@H](O)[C@@H](CN2CCCC2)NC(=O)CCCCC(=O)c2ccc(OC)cc2)cc1 [Compound 417],≤ 100
20,COc1ccc(C(=O)CCCCCC(=O)N[C@H](CN2CC[C@H](O)C2)[C@H](O)c2ccc(OCCCCF)cc2)cc1 [Compound 497],≤ 100
21,COc1ccc(OCCC(=O)N(Cc2cccc(-c3noc(C)n3)c2)[C@H](CN2CCCC2)[C@H](O)c2ccc(O)cc2)cc1 [Compound 718],3000 to 10000
22,COc1ccc(OCCC(=O)N[C@H](CN2CCCC2)[C@H](O)c2ccc(OCc3ccccc3)cc2)cc1 [Compound 705],≤ 100
23,CCCCCCCCCCCCCC(=O)N[C@H](CN(C)C(C)C)[C@H](O)c1ccc2c(c1)OCCO2 [Compound 684],100 to 1000
24,COc1ccc(OCCC(=O)N[C@H](Cn2ccnc2)[C@H](O)c2ccc3c(c2)OCCO3)cc1 [Compound 508],3000 to 10000
25,O=C(N[C@H](CN1CCCC1)[C@H](O)c1ccc2c(c1)OCCO2)C1CCC(C(F)(F)F)CC1 (stereo partly drawn) [Compound 616],3000 to 10000
26,O=C(CCCOn1nnc2ccccc21)N[C@H](CN1CC[C@@H](F)C1)[C@H](O)c1ccc2c(c1)OCCO2 [Compound 651],1000 to 3000
27,CCCNC[C@@H](NC(=O)CCCCCC(=O)c1ccc(OC)cc1)C(O)c1ccc2c(c1)OCCO2 (stereo partly drawn) [Compound 467],100 to 1000
28,O=C(CCOc1ccnc2ccccc12)N[C@H](CN1CCCC1)[C@H](O)c1ccc2c(c1)OCCO2 [Compound 692],100 to 1000
29,O=C(CCCN1Cc2ccccc2C1=O)N[C@H](CN1CCCC1)[C@H](O)c1ccc2c(c1)OCCO2 [Compound 485],3000 to 10000

# Other lines, results leading:
row,IC50 [nM],SMILES
1,3000 to 10000,CCCCN(CCCC)C[C@@H](NC(=O)CCCCCC(=O)c1ccc(OC)cc1)C(O)c1ccc2c(c1)OCCO2 (stereo partly drawn) [Compound 459]
2,3000 to 10000,O=C(N[C@H](CO)[C@H](O)c1ccc(C(F)(F)F)cc1)OCc1ccccc1 [Compound 483]
3,3000 to 10000,COC1CCC(OCCC(=O)N[C@H](CN2C(C)CCCC2C)[C@@H](O)c2ccc3c(c2)OCCO3)CC1 (stereo partly drawn) [Compound 598]
4,≤ 100,COc1ccc(C(=O)CCCC(=O)N[C@H](CN2CC[C@H](O)C2)[C@H](O)c2ccc(OCCCCF)cc2)cc1 [Compound 500]
5,100 to 1000,CCCCOc1ccc([C@@H](O)[C@@H](CN2CC[C@H](O)C2)NC(=O)CCCCC(=O)c2ccc(F)cc2)cc1 [Compound 657]
6,1000 to 3000,O=C(CCCCCn1cccn1)N[C@H](CN1CCCC1)[C@H](O)c1ccc2c(c1)OCCO2 [Compound 644]
7,100 to 1000,CCCCOc1ccc([C@@H](O)[C@@H](CN2CC[C@H](O)C2)NC(=O)CCCCCOC2CCC2)cc1 [Compound 593]
8,1000 to 3000,COc1ccc(C(=O)CCCCCC(=O)N[C@H](CN2CCCC2)[C@H](O)c2ccc(C(F)(F)F)cc2)cc1 [Compound 484]
9,100 to 1000,CCCCCCCC(=O)N[C@H](CN1CC[C@@H](F)C1)[C@H](O)c1ccc2c(c1)OCCO2 [Compound 504]
10,3000 to 10000,O=C1CCC(=O)N1[C@H](CN1CCCC1)[C@H](O)c1ccc2c(c1)OCCO2 [Compound 670]
11,≤ 100,Cc1ccc(OCCC(=O)N[C@H](CN2CC[C@@H](F)C2)[C@H](O)c2ccc(OCCCCF)cc2)cc1 [Compound 739]
12,≤ 100,COc1ccc(C(=O)CCCC(=O)N[C@H](CN2CC[C@@H](F)C2)[C@H](O)c2ccc(OCCCCF)cc2)cc1 [Compound 736]
13,≤ 100,Cc1ccc(OCCC(=O)N[C@H](CN2CC[C@H](O)C2)[C@H](O)c2ccc(OCCCCF)cc2)cc1 [Compound 496]
